# PMC6409085, “Three odorant-binding proteins are involved in the behavioral response of Sogatella furcifera to rice plant volatiles” (PeerJ, 2019)
# “And” between values parts separate entries of the source, which are not always exact repeats. Equal entries are not always repeated.
# Columns and labels:
# SfurOBP1 = SfurOBP1 (Sogatella furcifera, UniProt V5T8N5); test: biochemical; format: binding; details: for Fluorescence competitive binding assay, fluorescence intensity: OBP1, three replicate columns
# Procedure, shortened: (§1)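 In 50 mM Tris-HCl pH 7.4, odorants displace 1-NPN (2.0 µM) from 2.0 µM protein. Emission at 390–490 nm under 337 nm excitation is measured 2 min after competitor addition, in triplicate. Ki is obtained from IC50 and the 1-NPN dissociation constant.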
# SfurOBP11 = SfurOBP11 (Sogatella furcifera, UniProt V5T6E3); test: biochemical; format: binding
# Procedure, shortened: as §1
# SfurOBP2 = SfurOBP2 (Sogatella furcifera, UniProt V5T759); test: biochemical; format: binding
# Procedure, shortened: as §1
# SfurOBP3 = SfurOBP3 (Sogatella furcifera, UniProt V5T818); test: biochemical; format: binding; details: for Fluorescence competitive binding assay, fluorescence intensity: OBP3, three replicate columns;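 on Fluorescence competitive binding assay, fluorescence intensity: competitor odorant at 2 to 20 µM with protein and 1-NPN both 2.0 µM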
# Procedure, shortened: as §1
# S. furcifera adults = test: Y-tube olfactometer behavioral trials; format: in vivo, Sogatella furcifera; details: odorant 50 µL/L vs hexane; adults
# Procedure, shortened: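 Single S. furcifera adults (2 days post-emergence, starved 0.5 h) chose between odorant (100 µL of 50 µL/L on filter paper) and hexane control in a glass Y-tube, charcoal-filtered humidified air 300 mL/min per arm, 25 ± 1 °C, 50% RH. Choice scored if insect passed half an arm and stayed >1 min within 10 min; 45 insects per compound, chi-squared test.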
# 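Wherever Fluorescence competitive binding assay, fluorescence intensity is given: competitor odorant at 2 to 20 µM with protein and 1-NPN both 2.0 µM.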
# SfurOBP1, sequence (V5T8N5 entry or part of it): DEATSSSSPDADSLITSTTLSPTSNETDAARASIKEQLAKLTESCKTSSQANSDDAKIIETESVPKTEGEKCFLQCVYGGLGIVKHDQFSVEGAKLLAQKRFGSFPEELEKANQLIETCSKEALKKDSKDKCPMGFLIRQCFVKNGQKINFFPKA
# SfurOBP2, sequence (V5T759 entry or part of it): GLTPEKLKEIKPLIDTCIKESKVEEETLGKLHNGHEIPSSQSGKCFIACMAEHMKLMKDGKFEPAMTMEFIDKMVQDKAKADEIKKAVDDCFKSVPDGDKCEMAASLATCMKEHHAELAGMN
# SfurOBP11, sequence (V5T6E3 entry or part of it): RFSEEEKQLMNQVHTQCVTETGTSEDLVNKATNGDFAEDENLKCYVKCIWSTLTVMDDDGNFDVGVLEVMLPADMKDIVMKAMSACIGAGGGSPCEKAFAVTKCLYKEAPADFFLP
# SfurOBP3, sequence (V5T818 entry or part of it): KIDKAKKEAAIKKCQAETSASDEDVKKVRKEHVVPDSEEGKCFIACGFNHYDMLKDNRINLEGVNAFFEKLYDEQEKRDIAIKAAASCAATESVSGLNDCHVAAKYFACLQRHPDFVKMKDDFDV
smiles,measurement,setting,value
CC1=CC[C@@H](C(C)(C)O)CC1 [α-terpineol],IC50,SfurOBP1,> 20 µM
same,"Fluorescence competitive binding assay, fluorescence intensity",SfurOBP1; ligand concentration 2 (μM),6377 and 6063 and 6691
same,"Fluorescence competitive binding assay, fluorescence intensity",SfurOBP1; ligand concentration 4 (μM),7679 and 7170 and 7304
same,"Fluorescence competitive binding assay, fluorescence intensity",SfurOBP1; ligand concentration 6 (μM),7149 and 7127 and 7171
same,"Fluorescence competitive binding assay, fluorescence intensity",SfurOBP1; ligand concentration 8 (μM),6956 and 7151 and 7930
same,"Fluorescence competitive binding assay, fluorescence intensity",SfurOBP1; ligand concentration 10 (μM),8380 and 7109 and 7555
same,"Fluorescence competitive binding assay, fluorescence intensity",SfurOBP1; ligand concentration 12 (μM),7012 and 7971 and 7255
same,"Fluorescence competitive binding assay, fluorescence intensity",SfurOBP1; ligand concentration 14 (μM),6581 and 7020 and 7628
same,"Fluorescence competitive binding assay, fluorescence intensity",SfurOBP1; ligand concentration 16 (μM),6623 and 7749 and 6480
same,"Fluorescence competitive binding assay, fluorescence intensity",SfurOBP1; ligand concentration 18 (μM),7107 and 7324 and 6847
same,"Fluorescence competitive binding assay, fluorescence intensity",SfurOBP1; ligand concentration 20 (μM),6572 and 7380 and 8412
same,IC50,SfurOBP11,> 20 µM
same,"Fluorescence intensity, fluorescence competitive binding assay, OBP11","SfurOBP11; ligand concentration 2, replicate 1",29252
same,"Fluorescence intensity, fluorescence competitive binding assay, OBP11","SfurOBP11; ligand concentration 2, replicate 2",30685
same,"Fluorescence intensity, fluorescence competitive binding assay, OBP11","SfurOBP11; ligand concentration 2, replicate 3",32118
same,"Fluorescence intensity, fluorescence competitive binding assay, OBP11","SfurOBP11; ligand concentration 4, replicate 1",28869
same,"Fluorescence intensity, fluorescence competitive binding assay, OBP11","SfurOBP11; ligand concentration 4, replicate 2",31369
same,"Fluorescence intensity, fluorescence competitive binding assay, OBP11","SfurOBP11; ligand concentration 4, replicate 3",30942
same,"Fluorescence intensity, fluorescence competitive binding assay, OBP11","SfurOBP11; ligand concentration 6, replicate 1",28105
same,"Fluorescence intensity, fluorescence competitive binding assay, OBP11","SfurOBP11; ligand concentration 6, replicate 2",27021
same,"Fluorescence intensity, fluorescence competitive binding assay, OBP11","SfurOBP11; ligand concentration 6, replicate 3",30576
same,"Fluorescence intensity, fluorescence competitive binding assay, OBP11","SfurOBP11; ligand concentration 8, replicate 1",25898
same,"Fluorescence intensity, fluorescence competitive binding assay, OBP11","SfurOBP11; ligand concentration 8, replicate 2",26158
same,"Fluorescence intensity, fluorescence competitive binding assay, OBP11","SfurOBP11; ligand concentration 8, replicate 3",28412
same,"Fluorescence intensity, fluorescence competitive binding assay, OBP11","SfurOBP11; ligand concentration 10, replicate 1",27115
same,"Fluorescence intensity, fluorescence competitive binding assay, OBP11","SfurOBP11; ligand concentration 10, replicate 2",24221
same,"Fluorescence intensity, fluorescence competitive binding assay, OBP11","SfurOBP11; ligand concentration 10, replicate 3",26039
same,"Fluorescence intensity, fluorescence competitive binding assay, OBP11","SfurOBP11; ligand concentration 12, replicate 1",23153
same,"Fluorescence intensity, fluorescence competitive binding assay, OBP11","SfurOBP11; ligand concentration 12, replicate 2",22497
same,"Fluorescence intensity, fluorescence competitive binding assay, OBP11","SfurOBP11; ligand concentration 12, replicate 3",22406
same,"Fluorescence intensity, fluorescence competitive binding assay, OBP11","SfurOBP11; ligand concentration 14, replicate 1",22371
same,"Fluorescence intensity, fluorescence competitive binding assay, OBP11","SfurOBP11; ligand concentration 14, replicate 2",22254
same,"Fluorescence intensity, fluorescence competitive binding assay, OBP11","SfurOBP11; ligand concentration 14, replicate 3",22487
same,"Fluorescence intensity, fluorescence competitive binding assay, OBP11","SfurOBP11; ligand concentration 16, replicate 1",19119
same,"Fluorescence intensity, fluorescence competitive binding assay, OBP11","SfurOBP11; ligand concentration 16, replicate 2",17607
same,"Fluorescence intensity, fluorescence competitive binding assay, OBP11","SfurOBP11; ligand concentration 16, replicate 3",18419
same,"Fluorescence intensity, fluorescence competitive binding assay, OBP11","SfurOBP11; ligand concentration 18, replicate 1",25701
same,"Fluorescence intensity, fluorescence competitive binding assay, OBP11","SfurOBP11; ligand concentration 18, replicate 2",25030
same,"Fluorescence intensity, fluorescence competitive binding assay, OBP11","SfurOBP11; ligand concentration 18, replicate 3",24854
same,"Fluorescence intensity, fluorescence competitive binding assay, OBP11","SfurOBP11; ligand concentration 20, replicate 1",25268
same,"Fluorescence intensity, fluorescence competitive binding assay, OBP11","SfurOBP11; ligand concentration 20, replicate 2",25350
same,"Fluorescence intensity, fluorescence competitive binding assay, OBP11","SfurOBP11; ligand concentration 20, replicate 3",25312
same,IC50,SfurOBP2,> 20 µM
same,"Fluorescence competitive binding assay, OBP2 (raw fluorescence reading)","SfurOBP2; ligand concentration 2 (unit not given), replicate column 1 of 3",18212
same,"Fluorescence competitive binding assay, OBP2 (raw fluorescence reading)","SfurOBP2; ligand concentration 2 (unit not given), replicate column 2 of 3",17771
same,"Fluorescence competitive binding assay, OBP2 (raw fluorescence reading)","SfurOBP2; ligand concentration 2 (unit not given), replicate column 3 of 3",19569
same,"Fluorescence competitive binding assay, OBP2 (raw fluorescence reading)","SfurOBP2; ligand concentration 4 (unit not given), replicate column 1 of 3",20390
same,"Fluorescence competitive binding assay, OBP2 (raw fluorescence reading)","SfurOBP2; ligand concentration 4 (unit not given), replicate column 2 of 3",18924
same,"Fluorescence competitive binding assay, OBP2 (raw fluorescence reading)","SfurOBP2; ligand concentration 4 (unit not given), replicate column 3 of 3",19735
same,"Fluorescence competitive binding assay, OBP2 (raw fluorescence reading)","SfurOBP2; ligand concentration 6 (unit not given), replicate column 1 of 3",19485
same,"Fluorescence competitive binding assay, OBP2 (raw fluorescence reading)","SfurOBP2; ligand concentration 6 (unit not given), replicate column 2 of 3",20387
same,"Fluorescence competitive binding assay, OBP2 (raw fluorescence reading)","SfurOBP2; ligand concentration 6 (unit not given), replicate column 3 of 3",20572
same,"Fluorescence competitive binding assay, OBP2 (raw fluorescence reading)","SfurOBP2; ligand concentration 8 (unit not given), replicate column 1 of 3",16903
same,"Fluorescence competitive binding assay, OBP2 (raw fluorescence reading)","SfurOBP2; ligand concentration 8 (unit not given), replicate column 2 of 3",17555
same,"Fluorescence competitive binding assay, OBP2 (raw fluorescence reading)","SfurOBP2; ligand concentration 8 (unit not given), replicate column 3 of 3",17959
same,"Fluorescence competitive binding assay, OBP2 (raw fluorescence reading)","SfurOBP2; ligand concentration 10 (unit not given), replicate column 1 of 3",16415
same,"Fluorescence competitive binding assay, OBP2 (raw fluorescence reading)","SfurOBP2; ligand concentration 10 (unit not given), replicate column 2 of 3",15491
same,"Fluorescence competitive binding assay, OBP2 (raw fluorescence reading)","SfurOBP2; ligand concentration 10 (unit not given), replicate column 3 of 3",17367
same,"Fluorescence competitive binding assay, OBP2 (raw fluorescence reading)","SfurOBP2; ligand concentration 12 (unit not given), replicate column 1 of 3",14309
same,"Fluorescence competitive binding assay, OBP2 (raw fluorescence reading)","SfurOBP2; ligand concentration 12 (unit not given), replicate column 2 of 3",15826
same,"Fluorescence competitive binding assay, OBP2 (raw fluorescence reading)","SfurOBP2; ligand concentration 12 (unit not given), replicate column 3 of 3",15705
same,"Fluorescence competitive binding assay, OBP2 (raw fluorescence reading)","SfurOBP2; ligand concentration 14 (unit not given), replicate column 1 of 3",15282
same,"Fluorescence competitive binding assay, OBP2 (raw fluorescence reading)","SfurOBP2; ligand concentration 14 (unit not given), replicate column 2 of 3",15181
same,"Fluorescence competitive binding assay, OBP2 (raw fluorescence reading)","SfurOBP2; ligand concentration 14 (unit not given), replicate column 3 of 3",14363
same,"Fluorescence competitive binding assay, OBP2 (raw fluorescence reading)","SfurOBP2; ligand concentration 16 (unit not given), replicate column 1 of 3",13073
same,"Fluorescence competitive binding assay, OBP2 (raw fluorescence reading)","SfurOBP2; ligand concentration 16 (unit not given), replicate column 2 of 3",13018
same,"Fluorescence competitive binding assay, OBP2 (raw fluorescence reading)","SfurOBP2; ligand concentration 16 (unit not given), replicate column 3 of 3",13539
same,"Fluorescence competitive binding assay, OBP2 (raw fluorescence reading)","SfurOBP2; ligand concentration 18 (unit not given), replicate column 1 of 3",15519
same,"Fluorescence competitive binding assay, OBP2 (raw fluorescence reading)","SfurOBP2; ligand concentration 18 (unit not given), replicate column 2 of 3",15960
same,"Fluorescence competitive binding assay, OBP2 (raw fluorescence reading)","SfurOBP2; ligand concentration 18 (unit not given), replicate column 3 of 3",15297
same,"Fluorescence competitive binding assay, OBP2 (raw fluorescence reading)","SfurOBP2; ligand concentration 20 (unit not given), replicate column 1 of 3",14913
same,"Fluorescence competitive binding assay, OBP2 (raw fluorescence reading)","SfurOBP2; ligand concentration 20 (unit not given), replicate column 2 of 3",14580
same,"Fluorescence competitive binding assay, OBP2 (raw fluorescence reading)","SfurOBP2; ligand concentration 20 (unit not given), replicate column 3 of 3",12894
same,IC50,SfurOBP3,13.6 µM
same,"Fluorescence competitive binding assay, fluorescence intensity",SfurOBP3; ligand concentration 2,41927 and 42538 and 43146
same,"Fluorescence competitive binding assay, fluorescence intensity",SfurOBP3; ligand concentration 4,40833 and 40011 and 41655
same,"Fluorescence competitive binding assay, fluorescence intensity",SfurOBP3; ligand concentration 6,42160 and 41392 and 42949
same,"Fluorescence competitive binding assay, fluorescence intensity",SfurOBP3; ligand concentration 8,37611 and 37369 and 39854
same,"Fluorescence competitive binding assay, fluorescence intensity",SfurOBP3; ligand concentration 10,32220 and 32701 and 33181
same,"Fluorescence competitive binding assay, fluorescence intensity",SfurOBP3; ligand concentration 12,30392 and 29567 and 30934
same,"Fluorescence competitive binding assay, fluorescence intensity",SfurOBP3; ligand concentration 14,29784 and 30310 and 29247
same,"Fluorescence competitive binding assay, fluorescence intensity",SfurOBP3; ligand concentration 16,24410 and 25726 and 27469
same,"Fluorescence competitive binding assay, fluorescence intensity",SfurOBP3; ligand concentration 18,26293 and 25033 and 26983
same,"Fluorescence competitive binding assay, fluorescence intensity",SfurOBP3; ligand concentration 20,28495 and 26490 and 25496
same,binding affinity to SfurOBP3 (in words),SfurOBP3; SfurOBP3,high binding affinities
same,number of insects choosing hexane arm,S. furcifera adults,14
same,number of insects choosing volatilies arm,S. furcifera adults,11
same,number of insects failed (no choice),S. furcifera adults,15
